From US20230150970A1, “AMINOPYRIMIDINE DERIVATIVES AND THEIR USE AS ARYL HYDROCARBON RECEPTOR MODULATORS” (DONG-A ST CO., LTD., priority 2020, published 2023) come the findings set out here.

In the first data set the target is T1, AhR (Homo sapiens, UniProt P35869).
T1 sequence (P35869 11-848): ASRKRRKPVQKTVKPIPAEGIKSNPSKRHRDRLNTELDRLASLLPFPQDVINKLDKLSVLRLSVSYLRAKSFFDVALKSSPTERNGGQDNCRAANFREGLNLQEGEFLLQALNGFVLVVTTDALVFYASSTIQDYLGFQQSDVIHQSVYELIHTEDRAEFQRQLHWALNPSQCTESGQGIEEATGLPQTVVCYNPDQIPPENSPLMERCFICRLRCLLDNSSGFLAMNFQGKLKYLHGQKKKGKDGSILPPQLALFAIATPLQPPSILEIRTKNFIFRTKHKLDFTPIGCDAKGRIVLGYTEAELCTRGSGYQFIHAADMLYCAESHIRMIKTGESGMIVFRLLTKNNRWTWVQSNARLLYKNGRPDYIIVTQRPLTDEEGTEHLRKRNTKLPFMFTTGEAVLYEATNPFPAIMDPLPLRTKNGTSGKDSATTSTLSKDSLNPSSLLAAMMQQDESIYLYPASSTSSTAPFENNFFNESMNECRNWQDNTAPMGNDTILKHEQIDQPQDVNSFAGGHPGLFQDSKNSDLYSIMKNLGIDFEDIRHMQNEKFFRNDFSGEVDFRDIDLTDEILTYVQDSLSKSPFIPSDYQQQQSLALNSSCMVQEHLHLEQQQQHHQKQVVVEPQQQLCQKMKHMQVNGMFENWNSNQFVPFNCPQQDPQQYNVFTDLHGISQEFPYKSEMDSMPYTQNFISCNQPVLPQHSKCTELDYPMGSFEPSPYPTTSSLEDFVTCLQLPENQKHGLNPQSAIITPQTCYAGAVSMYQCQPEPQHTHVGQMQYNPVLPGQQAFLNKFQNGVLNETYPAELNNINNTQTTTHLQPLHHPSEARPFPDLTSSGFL
The data set is described as follows: In Vitro Assay 3: XRE-luciferase reporter assay, agonism in human cell line (HepG2). Set-up: endogenous in cells; host or cells: HepG2. The format is cell-based. To be noted: class in brackets of the cell; HepG2, tryptophan free medium, 6 hours, no agonist; read-out: Assay 3: AhR-Luc Human Agonism (EC50). As for the experimental part: In Vitro Assay 3: Agonism in Human Cell Line
HepG2 (human hepatoma cell line) cells co-transfected with XRE-Luc and Nano-Luc plasmids were plated in tryptophan free medium containing 1% of dialyzed fetal bovine serum and incubated overnight at 37° C. in a CO2 incubator. After 24 hours, cells were treated for 6 hours with test compounds or not. […] As a positive control, cells were incubated with TCDD.
(In general: A reporter such as luciferase makes a cellular process visible.)
The term EC50 denotes the concentration at which the effect is half-maximal. Take `COCCN1CCC(CNc2cc(-c3ccc(Cl)cc3)nc(-c3cccnc3)n2)CC1` [Example 170, 6-(4-chlorophenyl)-N-((1-(2-methoxyethyl)piperidin-4-yl)methyl)-2-(pyridin-3-yl)pyrimidin-4-amine]: the EC50 is more than 10000 nM.

The data set is the same for the next values; noted with them: number of the cell; HepG2, tryptophan free medium, 6 hours, no agonist; read-out: Assay 3: AhR-Luc Human Agonism (EC50).
With `C[C@@H]1CN(c2cc(-c3ccc(Cl)cc3)nc(-c3cccnc3)n2)C[C@H](C)O1` [Example 70, cis-4-(6-(4-chlorophenyl)-2-(pyridin-3-yl)pyrimidin-4-yl)-2,6-dimethylmorpholine], the EC50 is 758 nM.

On to `Cc1cccc(N2CCN(c3cc(-c4ccc(Cl)cc4)nc(-c4cccnc4)n3)CC2)c1C` [Example 118, 4-(4-chlorophenyl)-6-(4-(2,3-dimethylphenyl)piperazin-1-yl)-2-(pyridin-3-yl)pyrimidine], for which the concentration for a half-maximal effect (EC50) was 1580 nM.

For `C[C@@H](O)[C@@H](C)Nc1cc(-c2ccc(Cl)cc2)nc(-c2cccnc2)n1` [Example 144, (2R,3R)-3-((6-(4-chlorophenyl)-2-(pyridin-3-yl)pyrimidin-4-yl)amino)butan-2-ol], the 50% effective concentration (EC50) stood at 55.9 nM.

On to `COCCN1CCC(CNc2cc(-c3ccc(Cl)cc3)nc(-c3cccnc3)n2)CC1` [Example 170, 6-(4-chlorophenyl)-N-((1-(2-methoxyethyl)piperidin-4-yl)methyl)-2-(pyridin-3-yl)pyrimidin-4-amine], for which the half-maximal effective concentration (EC50) is more than 30000 nM.

The target of a further data set is T1, AhR. The data set is described as follows: In Vitro Assay 1: XRE-luciferase reporter assay, antagonism in human cell line (HepG2). Particulars: Assay 1: AhR-Luc Human Antagonism (IC50, nM), unmarked values: kynurenine 200 μM, 6 hours.
The term IC50 denotes the point on the concentration scale where inhibition reaches its midpoint. As for `CN(C)C1CN(c2cc(-c3ccc(Cl)cc3)nc(-c3cccnc3)n2)CCC1O` (stereo not shown) [Example 354, 1-(6-(4-chlorophenyl)-2-(pyridin-3-yl)pyrimidin-4-yl)-3-(dimethylamino)piperidin-4-ol], the concentration for half-maximal inhibition (IC50) was more than 1000 nM.

In turn, `CN(C)C1CC(O)CN(c2cc(-c3ccc(Cl)cc3)nc(-c3cccnc3)n2)C1` (stereo not shown) [Example 355, 1-(6-(4-chlorophenyl)-2-(pyridin-3-yl)pyrimidin-4-yl)-5-(dimethylamino)piperidin-3-ol] yielded an IC50 of 100 to 1000 nM.

For the compound `Cn1cc(-c2nc(-c3ccc(Cl)cc3)cc(N3CCC(CO)(S(C)(=O)=O)CC3)n2)cn1` [Example 356, (1-(6-(4-chlorophenyl)-2-(1-methyl-1H-pyrazol-4-yl)pyrimidin-4-yl)-4-(methylsulfonyl)piperidin-4-yl)methanol], the IC50 lay within 10 to 100 nM.

For the compound `Cn1cc(-c2nc(-c3ccc(C(F)(F)F)cc3)cc(N3CCC(CO)(S(C)(=O)=O)CC3)n2)cn1` [Example 357, (1-(2-(1-methyl-1H-pyrazol-4-yl)-6-(4-(trifluoromethyl)phenyl)pyrimidin-4-yl)-4-(methylsulfonyl)piperidin-4-yl)methanol], the concentration for half-maximal inhibition (IC50) is less than 10 nM.

With `CN(C)C1CN(c2cc(-c3ccc(Cl)cc3)nc(-c3cccnc3)n2)CCC1CO` (stereo not shown) [Example 358, (1-(6-(4-chlorophenyl)-2-(pyridin-3-yl)pyrimidin-4-yl)-3-(dimethylamino)piperidin-4-yl)methanol], the IC50 was 100 to 1000 nM.

Regarding `CC1CN(S(=O)(=O)CCO)CCN1c1cc(-c2ccc(Cl)cc2)nc(-c2cccnc2)n1` (stereo not shown) [Example 359, 2-((4-(6-(4-chlorophenyl)-2-(pyridin-3-yl)pyrimidin-4-yl)-3-methylpiperazin-1-yl)sulfonyl)ethan-1-ol], the 50% inhibitory concentration (IC50) is 10 to 100 nM.

For `OCCNC1CCN(c2cc(-c3ccc(Cl)cc3)nc(-c3cccnc3)n2)CC1` [Example 360, 2-((1-(6-(4-chlorophenyl)-2-(pyridin-3-yl)pyrimidin-4-yl)piperidin-4-yl)amino)ethanol], the IC50 was more than 1000 nM.

The compound `O=S(=O)(CCCO)N1CCN(c2cc(-c3ccc(Cl)cc3)nc(-c3cccnc3)n2)CC1` [Example 362, 3-((4-(6-(4-chlorophenyl)-2-(pyridin-3-yl)pyrimidin-4-yl)piperazin-1-yl)sulfonyl)propan-1-ol] yielded a 50% inhibitory concentration (IC50) of less than 10 nM.

`O=C(CC(O)CO)N1CCN(c2cc(-c3ccc(Cl)cc3)nc(-c3cccnc3)n2)CC1` (stereo not shown) [Example 363, 1-(4-(6-(4-chlorophenyl)-2-(pyridin-3-yl)pyrimidin-4-yl)piperazin-1-yl)-3,4-dihydroxybutan-1-one] had an IC50 of less than 10 nM.

As to `CC(O)C(O)C(=O)N1CCN(c2cc(-c3ccc(Cl)cc3)nc(-c3cccnc3)n2)CC1` (stereo not shown) [Example 364, 1-(4-(6-(4-chlorophenyl)-2-(pyridin-3-yl)pyrimidin-4-yl)piperazin-1-yl)-2,3-dihydroxybutan-1-one], the 50% inhibitory concentration (IC50) is less than 10 nM.

`CC1CN(c2cc(-c3ccc(Cl)cc3)nc(-c3cccnc3)n2)CC(=O)N1` (stereo not shown) [Example 365, 4-(6-(4-chlorophenyl)-2-(pyridin-3-yl)pyrimidin-4-yl)-6-methylpiperazin-2-one] came in with an IC50 of 100 to 1000 nM.

In turn, `O=C1COCCN1c1ccc(-c2cc(N3CC[C@H](O)C3)nc(-c3cccnc3)n2)cc1` [Example 367, (S)-4-(4-(6-(3-hydroxypyrrolidin-1-yl)-2-(pyridin-3-yl)pyrimidin-4-yl)phenyl)morpholin-3-one] returned an IC50 of more than 1000 nM.

Take `O=S(=O)(CCO)N1CCN(c2cc(-c3ccc(Cl)cc3)nc(-c3cnsc3)n2)CC1` [Example 368, 2-((4-(6-(4-chlorophenyl)-2-(isothiazol-4-yl)pyrimidin-4-yl)piperazin-1-yl)sulfonyl)ethanol]: the IC50 lay in the range of 10 to 100 nM.

Regarding `O=S(=O)(CC(O)CO)N1CCN(c2cc(-c3ccc(Cl)cc3)nc(-c3cccnc3)n2)CC1` (stereo not shown) [Example 369, 3-((4-(6-(4-chlorophenyl)-2-(pyridin-3-yl)pyrimidin-4-yl)piperazin-1-yl)sulfonyl)propane-1,2-diol], the IC50 lay in the range of 10 to 100 nM.

As to `O=S(=O)(CCO)N1CCN(c2cc(-c3ccc(C(F)(F)F)cc3)nc(-c3cnsc3)n2)CC1` [Example 370, 2-((4-(2-(isothiazol-4-yl)-6-(4-(trifluoromethyl)phenyl)pyrimidin-4-yl)piperazin-1-yl)sulfonyl)ethanol], the IC50 lay in the range of 10 to 100 nM.

`OCC[C@H]1CN(c2cc(-c3ccc(Cl)cc3)nc(-c3cccnc3)n2)CCN1` [Example 371, (S)-2-(4-(6-(4-chlorophenyl)-2-(pyridin-3-yl)pyrimidin-4-yl)piperazin-2-yl)ethanol]: the IC50 lay in the range of 100 to 1000 nM.

Compound `O=C1COCCN1c1ccc(-c2cc(N3CC[C@H](O)C3)nc(-c3cccnc3)n2)cn1` [Example 372, (S)-4-(5-(6-(3-hydroxypyrrolidin-1-yl)-2-(pyridin-3-yl)pyrimidin-4-yl)pyridin-2-yl)morpholin-3-one] yielded an IC50 of 100 to 1000 nM.

Compound `Oc1ncccc1-c1nc(-c2ccc(N3CCOCC3)c(F)c2)cc(N2CC[C@H](O)C2)n1` [Example 373, (S)-3-(4-(3-fluoro-4-morpholinophenyl)-6-(3-hydroxypyrrolidin-1-yl)pyrimidin-2-yl)pyridin-2-ol] returned an IC50 of 10 to 100 nM.

`CN(C)CCNc1ccc(-c2cc(N3CC[C@H](O)C3)nc(-c3cccnc3)n2)cc1` [Example 374, (S)-1-(6-(4-((2-(dimethylamino)ethyl)amino)phenyl)-2-(pyridin-3-yl)pyrimidin-4-yl)pyrrolidin-3-ol]: the IC50 was more than 1000 nM.

In the case of `CN(C)CCOc1ccc(-c2cc(N3CC[C@H](O)C3)nc(-c3cccnc3)n2)cc1` [Example 375, (S)-1-(6-(4-(2-(dimethylamino)ethoxy)phenyl)-2-(pyridin-3-yl)pyrimidin-4-yl)pyrrolidin-3-ol], the half-maximal inhibitory concentration (IC50) was more than 1000 nM.

`OCCNc1ccc(-c2cc(N3CC[C@H](O)C3)nc(-c3cccnc3)n2)cc1` [Example 376, (S)-1-(6-(4-((2-hydroxyethyl)amino)phenyl)-2-(pyridin-3-yl)pyrimidin-4-yl)pyrrolidin-3-ol]: the IC50 is 100 to 1000 nM.

The same data set, now with this note: Assay 1: AhR-Luc Human Antagonism (IC50, nM), values marked *: kynurenine 50 μM, 6 hours.
For `C[C@@H]1CN(c2cc(-c3ccc(Cl)cc3)nc(-c3cccnc3)n2)C[C@H](C)O1` [Example 70, cis-4-(6-(4-chlorophenyl)-2-(pyridin-3-yl)pyrimidin-4-yl)-2,6-dimethylmorpholine], the IC50 is more than 1000 nM.

Compound `Cc1cccc(N2CCN(c3cc(-c4ccc(Cl)cc4)nc(-c4cccnc4)n3)CC2)c1C` [Example 118, 4-(4-chlorophenyl)-6-(4-(2,3-dimethylphenyl)piperazin-1-yl)-2-(pyridin-3-yl)pyrimidine] displayed an IC50 of 10 to 100 nM.

In turn, `C[C@@H](O)[C@@H](C)Nc1cc(-c2ccc(Cl)cc2)nc(-c2cccnc2)n1` [Example 144, (2R,3R)-3-((6-(4-chlorophenyl)-2-(pyridin-3-yl)pyrimidin-4-yl)amino)butan-2-ol] showed an IC50 of 10 to 100 nM.

`COCCN1CCC(CNc2cc(-c3ccc(Cl)cc3)nc(-c3cccnc3)n2)CC1` [Example 170, 6-(4-chlorophenyl)-N-((1-(2-methoxyethyl)piperidin-4-yl)methyl)-2-(pyridin-3-yl)pyrimidin-4-amine] had a 50% inhibitory concentration (IC50) of 10 to 100 nM.

The data set is the same for the next values; noted with them: read-out: Assay 1: AhR-Luc Human Antagonism (IC50), values marked *: kynurenine 50 μM, 6 hours.
Take “(R)-(4-(6-(4-chlorophenyl)-2-(pyridin-3-yl)pyrimidin-4-yl)piperazin-2-yl)methanol [Example 79]”: the concentration for half-maximal inhibition (IC50) is more than 1000 nM.

On to “Cis-4-((6-(4-chlorophenyl)-2-(pyridin-3-yl)pyrimidin-4-yl)amino)cyclohexan-1-ol [Example 216]”, for which the IC50 is 10 to 100 nM.

With “Cis-(4-((6-(4-chlorophenyl)-2-(pyridin-3-yl)pyrimidin-4-yl)amino)cyclohexyl)methanol [Example 215]”, the 50% inhibitory concentration (IC50) fell in the range of 10 to 100 nM.

Consider “Trans-4-((6-(4-chlorophenyl)-2-(pyridin-3-yl)pyrimidin-4-yl)amino)cyclohexan-1-ol [Example 217]”, for which the IC50 is 10 to 100 nM.
